According to the NIST ThermoML archive (doi:10.1021/je5008789):

Settings: Liquid; for mass density: Vibrating tube method; for viscosity: Vibrating wire viscometry

CC(C)CCCC(C)CCCC(C)CCCCC(C)CCCC(C)CCCC(C)C (configuration not stated) [2,6,10,15,19,23-hexamethyltetracosane]
Settings	mass density [kg/m3]	viscosity [mPa·s]
338.19 K, 1050 kPa	779.26	6.815
338.19 K, 21210 kPa	792.77	9.666
338.2 K, 40640 kPa	803.93	13.19
338.2 K, 60420 kPa	814.29	17.71
338.2 K, 79830 kPa	822.46	23.48
338.2 K, 100230 kPa	831.55	30.94
338.2 K, 140240 kPa	845.12	52.3
338.2 K, 161300 kPa	851.46	68.14
338.21 K, 119820 kPa	837.96	40.32
338.22 K, 940 kPa	778.91	6.808
338.29 K, 1010 kPa	779.46	6.83
373.12 K, 620 kPa	756.02	3.122
373.12 K, 780 kPa	756.09	3.125
373.12 K, 20350 kPa	771.55	4.234
373.12 K, 39970 kPa	784.5	5.565
373.12 K, 60030 kPa	795.89	7.219
373.12 K, 80950 kPa	806.36	9.293
373.12 K, 101160 kPa	815.48	11.72
373.12 K, 120420 kPa	823.57	14.4
373.12 K, 140640 kPa	831.1	17.83
373.12 K, 159510 kPa	837.61	21.73
373.12 K, 180460 kPa	843.98	26.77
373.12 K, 201380 kPa	850.63	32.72
388.13 K, 890 kPa	746.65	2.432
388.13 K, 20290 kPa	762.98	3.25
388.13 K, 80490 kPa	799.25	6.828
388.13 K, 101530 kPa	809.12	8.548
388.13 K, 120960 kPa	817.16	10.46
388.13 K, 139900 kPa	824.59	12.58
388.14 K, 1100 kPa	746.78	2.436
388.14 K, 40380 kPa	776.95	4.242
388.14 K, 59850 kPa	788.53	5.392
388.14 K, 160800 kPa	832.35	15.31
388.14 K, 180610 kPa	838.96	18.4
388.14 K, 201470 kPa	845.55	22.16
413.17 K, 1050 kPa	730.56	1.691
413.18 K, 20110 kPa	748.65	2.233
413.18 K, 40280 kPa	763.94	2.885
413.18 K, 60200 kPa	776.68	3.62
413.21 K, 80740 kPa	788.16	4.485
413.22 K, 100350 kPa	797.82	5.454
413.22 K, 120460 kPa	806.56	6.574
413.24 K, 610 kPa	730.1	1.68
413.24 K, 140200 kPa	815.07	7.831
413.25 K, 160570 kPa	822.8	9.322
413.25 K, 181450 kPa	829.85	11.12
413.25 K, 202090 kPa	836.75	13.06
433.18 K, 1120 kPa	717.8	1.324
433.19 K, 60430 kPa	767.55	2.785
433.19 K, 160660 kPa	815.65	6.774
433.19 K, 180700 kPa	823.09	7.891
433.19 K, 200370 kPa	830.05	9.057
433.2 K, 80190 kPa	779.13	3.392
433.21 K, 100280 kPa	789.84	4.072
433.21 K, 120040 kPa	798.72	4.865
433.21 K, 140200 kPa	807.55	5.754
433.31 K, 600 kPa	717.04	1.309
433.35 K, 20500 kPa	737.74	1.749
433.36 K, 680 kPa	717.22	1.309
433.36 K, 40310 kPa	753.83	2.231
452.85 K, 201770 kPa	823.37	6.867
452.95 K, 163170 kPa	809.3	5.261
452.95 K, 180270 kPa	815.84	5.937
453.15 K, 1150 kPa	704.74	1.062
453.16 K, 20190 kPa	726.4	1.405
453.17 K, 40450 kPa	744.09	1.796
453.18 K, 60480 kPa	758.43	2.222
453.18 K, 80140 kPa	770.59	2.681
453.18 K, 100410 kPa	781.58	3.214
453.19 K, 160150 kPa	808.49	5.142
453.2 K, 120790 kPa	791.61	3.8
453.2 K, 140400 kPa	800.32	4.438
453.2 K, 180710 kPa	816.55	5.945
472.81 K, 1050 kPa	691.59	0.867
473.03 K, 200210 kPa	815.83	5.348
473.04 K, 1050 kPa	691.45	0.868
473.05 K, 150 kPa	690.19	0.853
473.05 K, 20040 kPa	715.2	1.151
473.05 K, 39890 kPa	733.71	1.465
473.05 K, 120200 kPa	783.48	3.031
473.05 K, 140440 kPa	792.71	3.531
473.05 K, 160340 kPa	801	4.073
473.05 K, 180470 kPa	808.83	4.671
473.06 K, 60230 kPa	749.17	1.81
473.06 K, 79910 kPa	761.86	2.175
473.07 K, 100370 kPa	773.42	2.59
